Results as given in patent US6630508B1, “Substituted benzopyrans as selective estrogen receptor β agonists” (Eli Lilly and Company, priority 2002, dated 2003).

Target: T1, ER beta receptor (Homo sapiens, UniProt Q92731)
T1 construct: purchased PanVera
Experiment: Competition ER binding assay (3H-Estradiol displacement)
Conditions: for Ratio of Ki(nM)ER alpha/Ki(nM) ER beta: selectivity ratio Ki ER alpha / Ki ER beta, Ki from IC50 by Cheng-Prusoff, 3H-Estradiol, ERAlpha or ERbeta Receptor (PanVera)
Protocol: The competition ER binding assay was run in a buffer containing 50 mM N-[2-hydroxyethyl]piperazine-N′-[2-ethanesulfonic acid (Hepes) pH 7.5, 1.5 mM EDTA, 150 mM NaCl, 10% glycerol, 1 mg/mL ovalbumin, 5 mM DTT, 0.025 μCi per well of ^3H-Estradiol(NEN #NET517 at 118 Ci/mmol, 1 mCi/mL), and 10 ng/well ERAlpha or ERbeta Receptor (PanVera). Competing compounds were added at 10 different concentrations. Non-specific binding was determined in the presence of 1 μM of E2 (17-β Estradiol, Sigma, St. Louis, Mo.). The binding reaction (140 μL) was incubated for 4 hours at room temperature, then 70 μL of cold dextran coated charcoal (DCC) buffer was added to each reaction (DCC buffer was prepared by adding 0.75 g of charcoal[Sigma] and 0.25 g of dextran [Pharmacia] per 50 mL of assay buffer). The incubation plates were mixed for 8 minutes on an orbital shaker at 4° C. and then centrifuged at 3,000 rpm for 10 minutes at 4° C. An aliquot of 120 μl of the mix was transferred to another 96-well, white flat bottom plate (Costar) and 175 μl of Wallac Optiphase Hisafe 3 scintillation fluid was added to each well. The plates were sealed and then shaken vigorously on an orbital shaker. After an incubation of 2.5 hrs, the radioactivity was counted in a Wallac Microbeta counter. […] The Kd for ^3H-Estradiol was determined by saturation binding to ERα and ERβ receptors. The IC50 values for compounds were converted to Ki values using the Cheng-Prusoff equation and the Kd values were determined by saturation binding assay.

T1 sequence (Q92731 whole entry): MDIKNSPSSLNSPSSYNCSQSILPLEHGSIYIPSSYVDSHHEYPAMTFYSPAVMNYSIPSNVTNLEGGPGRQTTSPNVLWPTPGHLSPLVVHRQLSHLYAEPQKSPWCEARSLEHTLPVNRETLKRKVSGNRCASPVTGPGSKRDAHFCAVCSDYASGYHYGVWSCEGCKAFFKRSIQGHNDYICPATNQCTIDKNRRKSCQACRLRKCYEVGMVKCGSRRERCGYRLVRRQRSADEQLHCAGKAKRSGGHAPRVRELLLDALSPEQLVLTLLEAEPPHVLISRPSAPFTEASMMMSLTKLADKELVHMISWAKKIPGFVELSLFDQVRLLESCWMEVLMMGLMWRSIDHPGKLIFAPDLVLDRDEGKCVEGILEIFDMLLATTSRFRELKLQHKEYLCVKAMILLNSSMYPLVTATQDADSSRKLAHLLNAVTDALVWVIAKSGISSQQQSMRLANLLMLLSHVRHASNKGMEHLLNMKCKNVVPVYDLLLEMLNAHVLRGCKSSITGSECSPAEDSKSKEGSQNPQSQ

| Compound | activity in the ER binding assay | Ratio of Ki(nM)ER alpha/Ki(nM) ER beta |
| --- | --- | --- |
| Oc1ccc2c(c1)[C@H]1CCC[C@H]1[C@@H](c1ccc(F)cc1)O2 (racemic) [Example 2, (±)-2-(4-Fluorophenyl)-6-hydroxy-cyclopentyl[c]3,4-dihydro-2H-1-benzopyran] | active | 5.0 |
| CCc1ccc([C@H]2Oc3ccc(O)cc3[C@H]3CCC[C@H]32)cc1 (racemic) [Example 3, (±)-2-(4-ethylphenyl)-6-hydroxy-cyclopentyl[c]3,4-dihydro-2H-1-benzopyran] | active | 2.6 |
| Oc1ccc2c(c1)[C@H]1CCC[C@H]1[C@@H](c1ccc(C(F)(F)F)cc1)O2 (racemic) [Example 4, (±)-2-(4-Trifluoromethylphenyl)-6-hydroxy-cyclopentyl[c]3,4-dihydro-2H-1-benzopyran] | active | 6.9 |
| Cc1ccc([C@H]2Oc3ccc(O)cc3[C@H]3CCC[C@H]32)cc1 (racemic) [Example 6, (±)-2-(4-Methylphenyl)-6-hydroxy-cyclopentyl[c]3,4-dihydro-2H-1-benzopyran] | active | 12.6 |
